Experimental data taken from patent publication US20250283050A1, “METHOD OF CANCER TREATMENT” (priority 2021, published 2025).
“Also recorded” adds a separate entry of the source.

Columns and labels:
stomach cancer = assay: en bloc tumor culture with chemotherapeutic agent and Hom-1-TAMs: stomach cancer; assay type: cell-based; conditions: agent plus Hom-1-TAMs
Procedure: (§1) Besides CRC, Hom-1-TAMs reverse immune polarity of PDAC and NSCLC TME (data not shown). The effects of Hom-1-TAM on tumoricidal effects of DOX were further explored on other tumor types, such as PDAC, NSLC, esophageal cancer and stomach cancers.
(§2) Additional chemo-reagents used in this study are listed below.
(§3) Tumor tissue were washed with 1×PBS buffer plus antibiotics and then cut into 0.5 cm pieces. Tissues were cultured in 2 mL of RPMI 1640 medium, supplemented with 2-10% FBS (Sigma) and 1% antibiotic-antimycotic solution (Gibco) in 24-well plate (Corning). The cultures were incubated at a 37° C., 5% CO2 incubator. […] To evaluate the effect of chemotherapeutic agents, chemo-reagents at indicated concentration or PBS was used instead of the anti-PD-1 antibody. For en bloc tissue and macrophage co-culture assay, 0.25×10^6 GFP-Hom-1 or control GFP transfected autologous macrophages of the same patient were added to the en bloc tissue culture wells. After gently shaking, the plate was incubated at 37° C., 5% CO2 for 3-5 days. The en bloc tissues were then subjected to single 1 cell isolation and analysis as described.

ovarian cancer = assay: en bloc tumor culture with chemotherapeutic agent and Hom-1-TAMs: ovarian cancer; assay type: cell-based; conditions: agent plus Hom-1-TAMs
Procedure: as §2, §3

[1] = system: TAMs and Treg in NSCLC-TME; assay: en bloc NSCLC culture: effects of PD-1 antibody on TAMs and Treg (FACS, qRT-PCR of Hom-1); assay type: cell-based, human; conditions: 1 μg/mL Pembrolizumab, 48 hours
Procedure: The effects of the treatment on TAMs were determined by FACS analysis of cell surface expression of CD68 and CD206 and qRT-PCR analysis of Hom-1 expression levels.
Total RNA was isolated by the TRIzol reagent (Life Technologies) and RNA amounts were measured by NanoDrop 2000 (Thermo Scientific). Equal amount of RNA was used for first-strand cDNA synthesis with SuperScript III First-Strand Synthesis System (Life Technologies) according to the manufacturer's protocol. The AccuPrime Taq DNA polymerase system (Life Technologies) was used to amplify Hom-1 cDNA with conventional PCR. Quantitative measurements of Hom-1 and other cDNA were carried out with SYBR Green, using a Mastercycler ep Gradient S (Eppendorf). GAPDH was used as a house keeping gene to normalize mRNA expression. Relative expression profiles of mRNAs were calculated using the comparative Ct method (DDCT method).
Tumor tissue were washed with 1×PBS buffer plus antibiotics and then cut into 0.5 cm pieces. Tissues were cultured in 2 mL of RPMI 1640 medium, supplemented with 2-10% FBS (Sigma) and 1% antibiotic-antimycotic solution (Gibco) in 24-well plate (Corning). The cultures were incubated at a 37° C., 5% CO2 incubator. […] To evaluate the effect of chemotherapeutic agents, chemo-reagents at indicated concentration or PBS was used instead of the anti-PD-1 antibody. […]

CD8 T cells in NSCLC-TME = assay: en bloc NSCLC culture: PD-1 antibody activation of CD8 T cells (FACS and ELISA of IL-2, IFN-γ); assay type: cell-based, human
Procedure: Tumor infiltrating T (TIL) cells and TAMs were then isolated, and their functional status were determined by FACS analysis.
Single cell suspensions were then generated and stained with FITC conjugated anti-CD8 antibody. The cells were then fixed, permeabilized, stained with PE-conjugated anti-IL2, or anti-IFNy antibodies and analyzed by a flow cytometry.
The culture media were collected after 48 hours. The levels of IL-2, and IFN-γ were quantified using ELISA kits, and statistical significance was determined by a two-way ANOVA analysis.
Levels of IL-1B, IL-2, IFN-γ and TNF-α were quantified using ELISA kits obtained from eBiosciences. Analyses were conducted according to the manufacturer's instructions. Triplicate wells were plated for each condition.
as §3, with “After gently shaking, the plate was incubated at 37° C., 5% CO2 for 3-5 days. The en bloc tissues were then subjected to single 1 cell isolation and analysis as described.” left out

NSCLC cancer cells = assay: en bloc NSCLC culture: cancer cell viability by PI-staining and FACS; assay type: cell-based, human; conditions: PD-1 antibody alone, 5 days
Procedure: Single cell suspensions were then obtained by mechanical disruption. The tumor cells were fixed and permeabilized, and were stained with CK7 antibodies and non-tumor epithelial cells were stained with EP4 antibodies. The cells were labeled with PI and percentage of PI positive cells were determined by FACS analysis.
As TME has been implicated in ICI resistance, it was next shown that reversal of immune suppression at NSCLC-TME increased efficacy of PD-1 antibodies. Specifically, en block NSCLC or control nLung tissues were treated with PD-1 or control antibodies, and co-cultured with autologous TAMs transfected with Hom-1 or control GFP. The effects of co-culturing were determined by FACS analysis of cancer or normal epithelial cell viability.
Tumor tissue were washed with 1×PBS buffer plus antibiotics and then cut into 0.5 cm pieces. Tissues were cultured in 2 mL of RPMI 1640 medium, supplemented with 2-10% FBS (Sigma) and 1% antibiotic-antimycotic solution (Gibco) in 24-well plate (Corning). […]
Single cell suspensions generated from en bloc tissue culture were washed with FACS staining solution (PBS plus 2% FBS), fixed and permeabilized (Invitrogen) and then stained with Ber-EP4 antibodies for normal epithelial cells and CK7, CK19 and CK20 for cancer cells for 30 minutes on ice. […] Cell viability were then analyzed with a flow cytometry.

primary human NSCLC = assay: individual NSG-PDX models of primary human NSCLC; assay type: in vivo, NSG mice; conditions: infusion of PD-1 antibody alone
Source text: Specifically, individual NSG-PDX models of primary NSCLC were generated by engrafting small pieces of primary NSCLC tissues into subcutaneous space on the dorsal lateral side of NSG mice.
Individual NSG-PDX models of primary human lung cancers were developed according to standard procedure. All animal experiments were approved by the Institutional Animal Care and Use Committee. Briefly, 8-week-old NOD.Cg-Prkdc^scid Il2rg^tm1Wjl/SzJ mice (commonly known as NOD scid gamma, or NSG mice) were purchased from the Jackson Laboratory and maintained under specific pathogen-free conditions. NSCLC tumors were cut into around 0.5 cm pieces and then surgically implanted into subcutaneous space on the dorsal side of NSG mice. […] The tumor growth was monitored twice weekly and measured by a caliper for 6 weeks. Tumor volumes were calculated according to the formula ½ (length×width^2).

esophageal cancer = assay: en bloc tumor culture with chemotherapeutic agent and Hom-1-TAMs: esophageal cancer; assay type: cell-based; conditions: agent plus Hom-1-TAMs
Procedure: as §1, §2, §3

[2] = system: non-small cell lung cancer (NSCLC); assay: en bloc tumor culture with chemotherapeutic agent and Hom-1-TAMs: NSCLC; assay type: cell-based; conditions: agent plus Hom-1-TAMs
Procedure: as §1, §2, §3

`CC(=O)O[C@H]1C(=O)[C@@]2(C)[C@H]([C@H](OC(=O)c3ccccc3)[C@]3(O)C[C@H](OC(=O)[C@H](O)[C@@H](NC(=O)c4ccccc4)c4ccccc4)C(C)=C1C3(C)C)[C@]1(OC(C)=O)CO[C@@H]1C[C@@H]2O` [Taxol] was tested, and the “tumoricidal effects promoted by Hom-1-TAMs” value (“tumoricidal effects promoted” below) (stomach cancer) was “promoted” and the “tumoricidal effects promoted” value (ovarian cancer) was “promoted”.

Pembrolizumab [PD-1 antibody] was tested, and the “phenotypical changes of Treg cells and TAMs” value [1] was “no significant phenotypical changes of the Treg cells and TAMs”, the “expression of Hom-1 in TAMs” value ([1]; qRT-PCR) was “did not alter the expression of Hom-1 in TAMs” and the “CD8 T cell activation (expression and secretion of IL-2 and IFN-γ)” value (CD8 T cells in NSCLC-TME; 1 μg/mL Pembrolizumab vs human IgG4, 24 or 48 hours) was “activates CD8 T cells in TME; also recorded: activates CD8^+ CTL”. The “dosage dependence of PD-1 antibody effect on CD8 T cell activation” value (CD8 T cells in NSCLC-TME; various concentrations, 48 hours, ELISA) was “dosage dependent”, the “PI-staining of tumor cells (tumoricidal effect)” value (NSCLC cancer cells) was “modest tumoricidal effects on cancer cells” and the “PI-staining of tumor cells (tumoricidal effect)” value (NSCLC cancer cells; listed as anti-PD-1 antibodies) was “modest increase of PI-staining of tumor cells”. The inhibition of tumorigenesis (primary human NSCLC) was “modest inhibition of tumorigenesis”.

For `N.N.[Cl][Pt][Cl]` [Cisplatin], the “tumoricidal effects promoted” value (esophageal cancer) was “promoted” and the “tumoricidal effects promoted” value [2] was “promoted”.
